This is an account of results in patent publication US20260159512A1, “BCAT2 INHIBITORS” (AGIOS PHARMACEUTICALS, INC., priority 2021, published 2026).

Molecules are shown by their SMILES.

Holding throughout (conditions): average where tested multiple times
Assay [1] deals with T1, BCAT2 (Homo sapiens, UniProt O15382).
T1 sequence (O15382 28-392): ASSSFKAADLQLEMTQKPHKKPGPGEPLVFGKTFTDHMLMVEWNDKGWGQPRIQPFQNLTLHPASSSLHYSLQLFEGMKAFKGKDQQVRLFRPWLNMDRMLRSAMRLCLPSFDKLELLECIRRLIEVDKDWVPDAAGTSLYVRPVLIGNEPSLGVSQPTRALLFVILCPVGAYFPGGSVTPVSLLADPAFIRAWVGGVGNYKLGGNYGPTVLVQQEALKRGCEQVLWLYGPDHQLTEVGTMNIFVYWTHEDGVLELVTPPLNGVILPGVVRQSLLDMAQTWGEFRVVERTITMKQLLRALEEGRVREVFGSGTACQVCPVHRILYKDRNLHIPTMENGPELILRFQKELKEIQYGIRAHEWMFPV
The assay is described as follows: BCAT2 in vitro enzyme inhibition assay (resazurin/diaphorase-coupled fluorescence). It counts as biochemical. The procedure, abridged:
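Coupled fluorescence readout: glutamate formed from L-leucine/α-ketoglutarate transamination drives GDH/NAD/diaphorase reduction of resazurin (Ex 540/Em 590). Human BCAT2 was first exposed 1 h at room temperature to compound, top final 100 μM in 3-fold, 10-point series; substrate reaction ran 1 h before SDS quench, in technical duplicate with DMSO max and enzyme-free min controls.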

The next assay concerns the target T2, hBCAT1 (Homo sapiens, UniProt P54687).
T2 sequence (P54687 1-386): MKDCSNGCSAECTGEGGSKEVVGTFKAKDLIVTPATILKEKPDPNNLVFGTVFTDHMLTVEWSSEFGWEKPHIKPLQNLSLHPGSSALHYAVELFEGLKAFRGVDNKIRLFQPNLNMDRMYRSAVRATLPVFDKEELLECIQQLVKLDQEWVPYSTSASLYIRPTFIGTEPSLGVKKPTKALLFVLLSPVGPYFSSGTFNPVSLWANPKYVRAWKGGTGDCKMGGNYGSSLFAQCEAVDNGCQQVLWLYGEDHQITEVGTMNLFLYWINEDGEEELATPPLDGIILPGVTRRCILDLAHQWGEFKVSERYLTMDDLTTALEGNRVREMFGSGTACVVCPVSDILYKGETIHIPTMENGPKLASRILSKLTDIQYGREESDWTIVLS
The assay is described as follows: BCAT1 in vitro enzyme inhibition assay (resazurin/diaphorase-coupled fluorescence). In kind it is biochemical. How it is done: BCAT1 In Vitro Enzyme Inhibition Assay
Meanwhile the Substrate Mix was prepared.
Test Compound Preparation:
Test compounds were prepared at 50× final concentration in DMSO, 1 to 3 dilutions were made for 10 points. The compounds were added to the assay as a 1 to 50 dilution (1 μL in 50 μL) to yield a top assay final concentration of 100 μM, decreasing 3-fold for 10 points. […] All tests were performed in technical duplicate.
Where a compound was tested multiple times, the average value of the tests is reported.

The target in assay [2] is T1, BCAT2. In words: BCAT2 in vitro cell inhibition using engineered A549 cells (KMV cell assay, 13C6-KMV by LC-MS/MS). In kind it is cell-based. Details: The result was an engineered A549 cell line that expressed endogenous BCAT2; endogenous in cells; host or cells: A549 cells with MUT and BCAT1 knocked out by CRISPR/CAS9.

On to `O=C(N[C@@H]1CCCC[C@H](n2c(-c3ccccc3F)nc3cnc(-c4nnc[nH]4)cc32)C1)c1ncc(Cl)s1` (single isomer, unassigned) [Example 87, 5-chloro-N-(3-(2-(2-fluorophenyl)-6-(4H-1,2,4-triazol-3-yl)-1H-imidazo[4,5-c]pyridin-1-yl)cycloheptyl)thiazole-2-carboxamide], for which the IC50 – broadly, the concentration at which inhibition is half-maximal – was at most 100 nM at BCAT2 [1], 1000 to 5000 nM on hBCAT1 and 100 to 500 nM at BCAT2 [2].

For the compound `O=C(N[C@H]1CCCC[C@@H](n2c(-c3ccccc3F)nc3cnc(-c4nnc[nH]4)cc32)C1)c1ncc(Cl)s1` (single isomer, unassigned) [Example 88, 5-chloro-N-(3-(2-(2-fluorophenyl)-6-(4H-1,2,4-triazol-3-yl)-1H-imidazo[4,5-c]pyridin-1-yl)cycloheptyl)thiazole-2-carboxamide], the IC50 against BCAT2 [1] was at most 100 nM; on hBCAT1 it was under 500 nM; against BCAT2 [2] it was at most 100 nM.

Turning to `O=C(N[C@H]1CCC[C@@H](n2c(C3CCCCO3)nc3cnc(-c4nc[nH]n4)cc32)C1)c1ncc(Cl)s1` (single isomer, unassigned) [Example 89], the IC50 on BCAT2 [1] is at most 100 nM; against hBCAT1, 500 to 1000 nM; at BCAT2 [2] it was 100 to 500 nM.

On to `O=C(N[C@H]1CCC[C@@H](n2c(C3CCCCO3)nc3cnc(-c4nc[nH]n4)cc32)C1)c1ncc(Cl)s1` (single isomer, unassigned) [Example 90], for which the concentration for half-maximal inhibition (IC50) on BCAT2 [1] is at most 100 nM; against hBCAT1, under 500 nM; on BCAT2 [2], 100 to 500 nM.

For the compound `O=C(N[C@H]1CCC[C@@H](n2c(C3CCCOC3)nc3cnc(-c4nc[nH]n4)cc32)C1)c1ncc(Cl)s1` (single isomer, unassigned) [Example 102], the IC50 against BCAT2 [1] was at most 100 nM; at hBCAT1, 1000 to 5000 nM; at BCAT2 [2], over 1000 nM.

On to `O=C(N[C@H]1CCC[C@@H](n2c(C3CCCOC3)nc3cnc(-c4nc[nH]n4)cc32)C1)c1ncc(Cl)s1` (single isomer, unassigned) [Example 103], for which the IC50 against BCAT2 [1] was at most 100 nM; on hBCAT1, 500 to 1000 nM; on BCAT2 [2] it was 100 to 500 nM.

Take `O=C(N[C@@H]1C[C@@H](O)C[C@H](n2c(-c3ccccc3F)nc3cnc(-n4nccn4)cc32)C1)c1ncc(C(F)F)s1` (single isomer, unassigned) [Example 107]: the IC50 against BCAT2 [1] was 100 to 500 nM; against hBCAT1, under 500 nM; against BCAT2 [2] it was 500 to 1000 nM.

For `O=C(N[C@H]1C[C@H](O)C[C@@H](n2c(-c3ccccc3F)nc3cnc(-n4nccn4)cc32)C1)c1ncc(C(F)F)s1` (single isomer, unassigned) [Example 108], the IC50 is at most 100 nM against BCAT2 [1], under 500 nM on hBCAT1 and at most 100 nM against BCAT2 [2].

`O=C(N[C@H]1C[C@H](O)C[C@@H](n2c(-c3ccccc3F)nc3cnc(-n4nccn4)cc32)C1)c1ncc(Cl)s1` (single isomer, unassigned) [Example 110]: the IC50 at BCAT2 [1] was at most 100 nM; at hBCAT1, under 500 nM; on BCAT2 [2] it was at most 100 nM.

For `O=C(N[C@@H]1C[C@@H](O)C[C@H](n2c(-c3ccccc3F)nc3cnc(-n4nccn4)cc32)C1)c1ncc(Cl)s1` (single isomer, unassigned) [Example 111], the IC50 against BCAT2 [1] is 100 to 500 nM; on hBCAT1 it was under 500 nM; at BCAT2 [2] it was 100 to 500 nM.

For the compound `O=C(N[C@H]1CCC[C@@H](n2c(-c3ccccc3F)nc3cnc(-n4nccn4)cc32)[C@@H]1O)c1ncc(Cl)s1` (single isomer, unassigned) [Example 113], the IC50 was at most 100 nM on BCAT2 [1], under 500 nM against hBCAT1 and at most 100 nM at BCAT2 [2].

With `CC(=O)N1CC(NC(=O)c2ccc(Br)s2)CC(n2c(-c3ccccn3)nc3cc(-c4ncon4)ccc32)C1` (stereo not shown) [Example 284, N-(5-(5-(1,2,4-oxadiazol-3-yl)-2-(pyridin-2-yl)-1H-benzo[d]imidazol-1-yl)-1-acetylpiperidin-3-yl)-5-bromothiophene-2-carboxamide], the IC50 against BCAT2 [1] is at most 100 nM; against hBCAT1, 1000 to 5000 nM.

Consider `CC(=O)N1CC(NC(=O)c2ccc(Br)s2)CC(n2c(-c3ccccn3)nc3ccc(C#N)cc32)C1` (stereo not shown) [Example 289, N-(1-acetyl-5-(6-cyano-2-(pyridin-2-yl)-1H-benzo[d]imidazol-1-yl)piperidin-3-yl)-5-bromothiophene-2-carboxamide], for which the IC50 is 100 to 500 nM on BCAT2 [1] and over 5000 nM against hBCAT1.

Consider `CNC(=O)c1cc2nc(-c3ccccn3)n(C3CC(NC(=O)c4ccc(Br)s4)CN(C)C3)c2cc1OC` (stereo not shown) [Example 290, 1-(5-(5-bromothiophene-2-carboxamido)-1-methylpiperidin-3-yl)-6-methoxy-N-methyl-2-(pyridin-2-yl)-1H-benzo[d]imidazole-5-carboxamide], for which the IC50 is at most 100 nM against BCAT2 [1] and over 5000 nM against hBCAT1.

As for `C#Cc1ccc(C(=O)NC2CC(n3c(-c4ccccc4F)nc4cc(C(=O)NC)c(OC)cc43)CN(C)C2)s1` (stereo not shown) [Example 292, 1-(5-(5-ethynylthiophene-2-carboxamido)-1-methylpiperidin-3-yl)-2-(2-fluorophenyl)-6-methoxy-N-methyl-1H-benzo[d]imidazole-5-carboxamide], the values for the IC50 against BCAT2 [1] and against hBCAT1 were at most 100 nM and 1000 to 5000 nM, respectively.

In the case of `CNC(=O)c1ccc2c(c1)nc(-c1ccccn1)n2C1CC(NC(=O)c2ccc(Br)s2)CN(C(N)=O)C1` (stereo not shown) [Example 293, 1-(5-(5-bromothiophene-2-carboxamido)-1-carbamoylpiperidin-3-yl)-N-methyl-2-(pyridin-2-yl)-1H-benzo[d]imidazole-5-carboxamide], the IC50 on BCAT2 [1] was at most 100 nM; at hBCAT1 it was 1000 to 5000 nM.

For the compound `O=C(N[C@H]1CCC[C@@H](n2c(-c3ncccc3F)nc3cnc(N4CCC4)cc32)C1)c1ccc(Br)s1` [Example 300], the IC50 against BCAT2 [1] is over 1000 nM; against hBCAT1, over 5000 nM.

In the case of `O=C(N[C@H]1CCC[C@@H](n2c(-c3ccccc3F)nc3cnc(N4CCC4)cc32)C1)c1ccc(Br)s1` [Example 301, N-((1S,3R)-3-(6-(azetidin-1-yl)-2-(2-fluorophenyl)-1H-imidazo[4,5-c]pyridin-1-yl)cyclohexyl)-5-bromothiophene-2-carboxamide], the IC50 against BCAT2 [1] is over 1000 nM; at hBCAT1, over 5000 nM.

Regarding `CC(C)Cc1nc2cnc(-c3cccc4ccoc34)cc2n1[C@@H]1CCC[C@H](NC(=O)c2ncc(Cl)s2)C1` [Example 327, N-((1S,3R)-3-(6-(benzofuran-7-yl)-2-isobutyl-1H-imidazo[4,5-c]pyridin-1-yl)cyclohexyl)-5-chlorothiazole-2-carboxamide], the values for the IC50 against BCAT2 [1] and on hBCAT1 were 100 to 500 nM and 1000 to 5000 nM, respectively.

As for `Cc1nsc(-c2cc3c(cn2)nc(CC(C)C)n3[C@@H]2CCC[C@H](NC(=O)c3ncc(Cl)s3)C2)n1` [Example 336, 5-chloro-N-((1S,3R)-3-(2-isobutyl-6-(3-methyl-1,2,4-thiadiazol-5-yl)-1H-imidazo[4,5-c]pyridin-1-yl)cyclohexyl)thiazole-2-carboxamide], the IC50 was 100 to 500 nM on BCAT2 [1] and 1000 to 5000 nM on hBCAT1.

On to `O=C(N[C@H]1CCC[C@@H](n2c(N3CCCCC3)nc3cnc(-c4nc[nH]n4)cc32)C1)c1ccc(Cl)s1` [Example 372, 5-chloro-N-((1S,3R)-3-(2-(piperidin-1-yl)-6-(1H-1,2,4-triazol-3-yl)-1H-imidazo[4,5-c]pyridin-1-yl)cyclohexyl)thiophene-2-carboxamide], for which the IC50 is at most 100 nM against BCAT2 [1] and under 500 nM against hBCAT1.

Turning to `CC(C)Cc1nc2cnc(-n3nccn3)cc2n1[C@H]1CCC[C@@H](NC(=O)c2ccc(Cl)s2)[C@@H]1O` [Example 394, 5-chloro-N-((1R,2S,3S)-2-hydroxy-3-(2-isobutyl-6-(2H-1,2,3-triazol-2-yl)-1H-imidazo[4,5-c]pyridin-1-yl)cyclohexyl)thiophene-2-carboxamide], the results for the half-maximal inhibitory concentration (IC50) on BCAT2 [1] and on hBCAT1 were over 1000 nM and 1000 to 5000 nM, respectively.
